From US11034650B2, “Compounds useful for treating a Mannheimia haemolytica or Histophilus somni infection” (Intervet Inc., priority 2016, dated 2021) come the findings set out here.

In brackets after ≈: the same amount, converted by molar mass. Some results are limits rather than exact numbers.

For one assay, the system named is Pasteurella multocida PM 6391 (ATCC 43137, reference strain). The assay can be described thus: MIC, broth-microdilution (CLSI VET01-A4), strain PM 6391. It is filed as cell-based. To be noted: Pasteurella multocida strain PM 6391, broth-microdilution; unit assumed. In a few lines: (§1)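 Doubling dilution series in trays; visual read, MIC = lowest conc. with no visible turbidity; interpretation per CLSI VET01-S3.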
On the technique in general: Broth dilution looks for growth in wells or tubes with falling amounts of substance.
In turn, `CC(C)(C(NC(=O)c1ccc(C#Cc2ccc(CNCc3ccccn3)cc2)cc1)C(=O)NO)[N+](=O)[O-]` (stereo not shown) [Compound 282] gave an MIC PM 6391 of 0.4 µg/mL (≈ 0.798 µM).
Still for that read-out and setting: next, `O=C(N[C@@H](CO)C(=O)NO)c1ccc(C#Cc2ccc(CNCc3cccs3)cc2)cc1` [Compound 160]: 0.4 µg/mL (≈ 0.89 µM); `CC[C@H](C)[C@H](NC(=O)c1ccc(C#Cc2ccc(CN(C)CCOC)cc2)cc1)C(=O)NO` [Compound 178]: 0.8 µg/mL (≈ 1.77 µM).
The same measure, in the same setting: the same measure for `COCCCNCc1ccc(C#Cc2ccc(C(=O)N[C@@H](CO)C(=O)NO)cc2)cc1` [Compound 153]: 6.3 µg/mL (≈ 14.8 µM).

The next assay has as its system Mannheimia haemolytica MH 12587 (1071, BRD field isolate, macrolide-resistance: erm+, E+). The assay can be described thus: MIC, broth-microdilution (CLSI VET01-A4), strain MH 12587. It is filed as cell-based. As to conditions: Mannheimia haemolytica strain MH 12587, broth-microdilution; unit assumed. In a few lines:
as §1
Take `CC(C)(C(NC(=O)c1ccc(C#Cc2ccc(CNCc3ccccn3)cc2)cc1)C(=O)NO)[N+](=O)[O-]` (stereo not shown) [Compound 282]: the MIC MH 12587 was 1.6 µg/mL (≈ 3.19 µM).
`O=C(N[C@@H](CO)C(=O)NO)c1ccc(C#Cc2ccc(CNCc3cccs3)cc2)cc1` [Compound 160] had an MIC MH 12587 of 3.1 µg/mL (≈ 6.9 µM).
In turn, `CC[C@H](C)[C@H](NC(=O)c1ccc(C#Cc2ccc(CN(C)CCOC)cc2)cc1)C(=O)NO` [Compound 178] yielded an MIC MH 12587 of 6.3 µg/mL (≈ 14 µM).
In turn, `COCCCNCc1ccc(C#Cc2ccc(C(=O)N[C@@H](CO)C(=O)NO)cc2)cc1` [Compound 153] displayed an MIC MH 12587 of 25 µg/mL (≈ 58.8 µM).

In the next assay the test system is Mannheimia haemolytica MH 13093 (XB0472-6014.1, BRD field isolate). The assay can be described thus: MIC, broth-microdilution (CLSI VET01-A4), strain MH 13093. As to conditions: Mannheimia haemolytica strain MH 13093, broth-microdilution; unit assumed. It is filed as cell-based. The method, boiled down: as §1
For the compound `CC(C)(C(NC(=O)c1ccc(C#Cc2ccc(CNCc3ccccn3)cc2)cc1)C(=O)NO)[N+](=O)[O-]` (stereo not shown) [Compound 282], the MIC MH 13093 turned out to be 1.6 µg/mL (≈ 3.19 µM).
Still for that read-out and setting: next, `O=C(N[C@@H](CO)C(=O)NO)c1ccc(C#Cc2ccc(CNCc3cccs3)cc2)cc1` [Compound 160]: 3.1 µg/mL (≈ 6.9 µM); `CC[C@H](C)[C@H](NC(=O)c1ccc(C#Cc2ccc(CN(C)CCOC)cc2)cc1)C(=O)NO` [Compound 178]: 3.1 µg/mL (≈ 6.86 µM).
For the compound `COCCCNCc1ccc(C#Cc2ccc(C(=O)N[C@@H](CO)C(=O)NO)cc2)cc1` [Compound 153], the MIC MH 13093 was 25 µg/mL (≈ 58.8 µM).

For a further assay, the system named is Mannheimia haemolytica MH 6357 (M7/2, reference strain, cattle infection strain). The assay can be described thus: MIC, broth-microdilution (CLSI VET01-A4), strain MH 6357. It is filed as cell-based. As to conditions: Mannheimia haemolytica strain MH 6357, broth-microdilution; unit assumed. In a few lines:
as §1
The compound `CC(C)(C(NC(=O)c1ccc(C#Cc2ccc(CNCc3ccccn3)cc2)cc1)C(=O)NO)[N+](=O)[O-]` (stereo not shown) [Compound 282] gave an MIC MH 6357 of 0.8 µg/mL (≈ 1.6 µM).
The same measure, in the same setting: the same measure for `O=C(N[C@@H](CO)C(=O)NO)c1ccc(C#Cc2ccc(CNCc3cccs3)cc2)cc1` [Compound 160]: 0.8 µg/mL (≈ 1.78 µM); for `CC[C@H](C)[C@H](NC(=O)c1ccc(C#Cc2ccc(CN(C)CCOC)cc2)cc1)C(=O)NO` [Compound 178]: 1.6 µg/mL (≈ 3.54 µM).
`COCCCNCc1ccc(C#Cc2ccc(C(=O)N[C@@H](CO)C(=O)NO)cc2)cc1` [Compound 153] gave an MIC MH 6357 of 12.5 µg/mL (≈ 29.4 µM).

For a further assay, the system named is Mannheimia haemolytica MH 13065 (XB0446-6003.9, BRD field isolate). The assay can be described thus: MIC, broth-microdilution (CLSI VET01-A4), strain MH 13065. It is filed as cell-based. As to conditions: Mannheimia haemolytica strain MH 13065, broth-microdilution; unit assumed. The method, boiled down:
as §1
`CC(C)(C(NC(=O)c1ccc(C#Cc2ccc(CNCc3ccccn3)cc2)cc1)C(=O)NO)[N+](=O)[O-]` (stereo not shown) [Compound 282] came in with an MIC MH 13065 of 0.4 µg/mL (≈ 0.798 µM).
`O=C(N[C@@H](CO)C(=O)NO)c1ccc(C#Cc2ccc(CNCc3cccs3)cc2)cc1` [Compound 160]: the MIC MH 13065 came to 1.6 µg/mL (≈ 3.56 µM).
On the same count and under the same terms, the same measure for `CC[C@H](C)[C@H](NC(=O)c1ccc(C#Cc2ccc(CN(C)CCOC)cc2)cc1)C(=O)NO` [Compound 178]: 1.6 µg/mL (≈ 3.54 µM); for `COCCCNCc1ccc(C#Cc2ccc(C(=O)N[C@@H](CO)C(=O)NO)cc2)cc1` [Compound 153]: 12.5 µg/mL (≈ 29.4 µM).

Another assay concerns Mannheimia haemolytica MH 6374 (ATCC 33396, reference strain). The assay can be described thus: MIC, broth-microdilution (CLSI VET01-A4), strain MH 6374. It is filed as cell-based. To be noted: Mannheimia haemolytica strain MH 6374, broth-microdilution; unit assumed. The method, boiled down: as §1
In the case of `CC(C)(C(NC(=O)c1ccc(C#Cc2ccc(CNCc3ccccn3)cc2)cc1)C(=O)NO)[N+](=O)[O-]` (stereo not shown) [Compound 282], the MIC MH 6374 stood at 0.8 µg/mL (≈ 1.6 µM).
`O=C(N[C@@H](CO)C(=O)NO)c1ccc(C#Cc2ccc(CNCc3cccs3)cc2)cc1` [Compound 160] showed an MIC MH 6374 of 0.8 µg/mL (≈ 1.78 µM).
`CC[C@H](C)[C@H](NC(=O)c1ccc(C#Cc2ccc(CN(C)CCOC)cc2)cc1)C(=O)NO` [Compound 178] gave an MIC MH 6374 of 3.1 µg/mL (≈ 6.86 µM).
In turn, `COCCCNCc1ccc(C#Cc2ccc(C(=O)N[C@@H](CO)C(=O)NO)cc2)cc1` [Compound 153] registered an MIC MH 6374 of 25 µg/mL (≈ 58.8 µM).

The next assay has as its system Pasteurella multocida PM 10775 (080130003051, BRD field isolate). The assay can be described thus: MIC, broth-microdilution (CLSI VET01-A4), strain PM 10775. It is filed as cell-based. As to conditions: Pasteurella multocida strain PM 10775, broth-microdilution; unit assumed. In a few lines:
as §1
Compound `CC(C)(C(NC(=O)c1ccc(C#Cc2ccc(CNCc3ccccn3)cc2)cc1)C(=O)NO)[N+](=O)[O-]` (stereo not shown) [Compound 282] gave an MIC PM 10775 of 0.4 µg/mL (≈ 0.798 µM).
With `O=C(N[C@@H](CO)C(=O)NO)c1ccc(C#Cc2ccc(CNCc3cccs3)cc2)cc1` [Compound 160], the MIC PM 10775 is no more than 0.1 µg/mL.
Still for that read-out and setting: next, `CC[C@H](C)[C@H](NC(=O)c1ccc(C#Cc2ccc(CN(C)CCOC)cc2)cc1)C(=O)NO` [Compound 178]: no more than 0.1 µg/mL; `COCCCNCc1ccc(C#Cc2ccc(C(=O)N[C@@H](CO)C(=O)NO)cc2)cc1` [Compound 153]: no more than 0.1 µg/mL.

A further assay relates to Pasteurella multocida PM 12080 (IV102277-0093, BRD field isolate). The assay can be described thus: MIC, broth-microdilution (CLSI VET01-A4), strain PM 12080. As to conditions: Pasteurella multocida strain PM 12080, broth-microdilution; unit assumed. In kind it is cell-based. The method, boiled down:
as §1
Regarding `CC(C)(C(NC(=O)c1ccc(C#Cc2ccc(CNCc3ccccn3)cc2)cc1)C(=O)NO)[N+](=O)[O-]` (stereo not shown) [Compound 282], the MIC PM 12080 was 0.2 µg/mL (≈ 0.399 µM).
The same measure, in the same setting: next, `O=C(N[C@@H](CO)C(=O)NO)c1ccc(C#Cc2ccc(CNCc3cccs3)cc2)cc1` [Compound 160]: 0.2 µg/mL (≈ 0.445 µM); `CC[C@H](C)[C@H](NC(=O)c1ccc(C#Cc2ccc(CN(C)CCOC)cc2)cc1)C(=O)NO` [Compound 178]: 0.4 µg/mL (≈ 0.886 µM).
Still for that read-out and setting: next, `COCCCNCc1ccc(C#Cc2ccc(C(=O)N[C@@H](CO)C(=O)NO)cc2)cc1` [Compound 153]: 0.8 µg/mL (≈ 1.88 µM).

Another assay deals with Pasteurella multocida PM 6267 (P 2225 (L386), reference strain, mouse infection strain). The assay can be described thus: MIC, broth-microdilution (CLSI VET01-A4), strain PM 6267. In kind it is cell-based. As to conditions: Pasteurella multocida strain PM 6267, broth-microdilution; unit assumed. The method, boiled down:
as §1
The compound `CC(C)(C(NC(=O)c1ccc(C#Cc2ccc(CNCc3ccccn3)cc2)cc1)C(=O)NO)[N+](=O)[O-]` (stereo not shown) [Compound 282] registered an MIC PM 6267 of 0.8 µg/mL (≈ 1.6 µM).
Still for that read-out and setting: the same measure for `O=C(N[C@@H](CO)C(=O)NO)c1ccc(C#Cc2ccc(CNCc3cccs3)cc2)cc1` [Compound 160]: no more than 0.1 µg/mL; for `CC[C@H](C)[C@H](NC(=O)c1ccc(C#Cc2ccc(CN(C)CCOC)cc2)cc1)C(=O)NO` [Compound 178]: 0.2 µg/mL (≈ 0.443 µM); for `COCCCNCc1ccc(C#Cc2ccc(C(=O)N[C@@H](CO)C(=O)NO)cc2)cc1` [Compound 153]: 1.6 µg/mL (≈ 3.76 µM).

Another assay relates to Mannheimia haemolytica MH 10720 (154, BRD field isolate). The assay can be described thus: MIC, broth-microdilution (CLSI VET01-A4), strain MH 10720. In kind it is cell-based. To be noted: Mannheimia haemolytica strain MH 10720, broth-microdilution; unit assumed. The method, boiled down: as §1
Consider `CC(C)(C(NC(=O)c1ccc(C#Cc2ccc(CNCc3ccccn3)cc2)cc1)C(=O)NO)[N+](=O)[O-]` (stereo not shown) [Compound 282], for which the MIC MH 10720 was no more than 0.1 µg/mL.
`O=C(N[C@@H](CO)C(=O)NO)c1ccc(C#Cc2ccc(CNCc3cccs3)cc2)cc1` [Compound 160] registered an MIC MH 10720 of 0.4 µg/mL (≈ 0.89 µM).
On the same count and under the same terms, next, `CC[C@H](C)[C@H](NC(=O)c1ccc(C#Cc2ccc(CN(C)CCOC)cc2)cc1)C(=O)NO` [Compound 178]: 0.8 µg/mL (≈ 1.77 µM); `COCCCNCc1ccc(C#Cc2ccc(C(=O)N[C@@H](CO)C(=O)NO)cc2)cc1` [Compound 153]: 6.3 µg/mL (≈ 14.8 µM).
